In PMC4230943, “Mimicking Hypoxia to Treat Anemia: HIF-Stabilizer BAY 85-3934 (Molidustat) Stimulates Erythropoietin Production without Hypertensive Effects” (PLoS ONE, 2014):

Assays:
[1] = tested on: cynomolgus monkeys; assay: Comparison of BAY 85-3934 with rhEPO (single dose and 14-day repeat dose); assay type: in vivo, cynomolgus monkey
Description: Male and female cynomolgus monkeys (2.8–5.6 kg in body weight) were used, which were housed two per cage. Blood samples from conscious cynomolgus monkeys were taken by puncturing a superficial vein. In a 5-day, repeat-dose study of plasma EPO response, BAY 85-3934 was administered at doses of 0.5 mg/kg and 1.5 mg/kg at 0 h, 24 h, 48 h, 72 h, and 96 h. Blood samples were taken at 7 h, 31 h, 55 h, 79 h, 103 h, and 168 h. Erythropoietic parameters were also evaluated after a 2-week treatment period with s.c. administration of rhEPO (100 IU/kg twice weekly at days 1, 4, 8, and 11) and BAY 85-3934 (1.5 mg/kg) once daily.
EPO was measured in plasma samples taken from rodents using a commercial ELISA kit (R&D Systems), according to the manufacturer’s instructions. Relative plasma EPO levels were given in picograms per milliliter. In cynomolgus monkeys, EPO was measured using a combination anti-human EPO ELISAs (R&D Systems and Roche Diagnostics), with human EPO as a standard. Values were given as units per liter. For determination of plasma prorenin from rats, a commercial ELISA (Oxford Biomedical Research) was used according to the manufacturer’s instructions. Hemoglobin in rodent blood samples was determined on a Cell-Dyn 3700 apparatus (Abbott Diagnostics). BAY 85-3934 plasma concentrations were determined after protein precipitation with acetonitrile/ammonium acetate using an internal standard, followed by separation using HPLC/mass spectrometry.
In a further study, the efficacy of oral treatment with BAY 85-3934 was evaluated in comparison with rhEPO. Animals were administered a single dose of rhEPO (100 IU/kg) by s.c. injection or BAY 85-3934 (1.5 mg/kg, oral). After administration of rhEPO, plasma concentrations of rhEPO were more than 8-fold higher than the endogenous EPO levels induced by treatment with BAY 85-3934 (Fig. 3B). The area under the curve (AUC) of rhEPO was more than 6-fold higher than the AUC of endogenous EPO. […] Mean reticulocyte counts were 2-fold higher after treatment with rhEPO than after treatment with BAY 85-3934, but returned to baseline values 8 days after treatment cessation.

[2] = tested on: male Wistar rats; assay: Comparison of oral BAY 85-3934 with rhEPO on erythropoiesis; assay type: in vivo, rat
Description: Male Wistar rats (240–340 g in body weight) were housed with five animals per cage for at least 1 week before experimentation. Blood samples from rats were collected under anesthesia (2% isoflurane in air) by puncturing the retro-orbital vein plexus with a glass capillary. In a repeat-dose, 26-day experiment, animals were administered vehicle or BAY 85-3934 at doses of 0.5 mg/kg, 1.25 mg/kg, 2.5 mg/kg, and 5 mg/kg. PCV was determined at baseline and at weekly intervals after centrifugation in a hematocrit capillary tube (Brand) for 10 min at full speed in a Haemofuge centrifuge (Heraeus). The number of reticulocytes in 5 µl blood was counted after staining with thiazol orange (Becton Dickinson) according to the manufacturer’s instructions by FACS analysis on a BD FACSCalibur system (Becton Dickinson). The efficacy of BAY 85-3934 (2.5 mg/kg, once-daily, oral) was also compared with that of rhEPO (25 IU/kg, 50 IU/kg, and 100 IU/kg, twice-weekly, s.c. injection). […] The efficacy of oral treatment with BAY 85-3934 was compared with that of standard rhEPO treatment in male Wistar rats.

[3] = tested on: male Wistar rats; assay: Subtotal nephrectomy (remnant kidney) model; assay type: in vivo, rat; conditions: same dose for 3 days, data not shown
[4] = tested on: male Wistar rats; assay: 26-day repeat-dose experiment, packed cell volume
Description: Male Wistar rats (240–340 g in body weight) were housed with five animals per cage for at least 1 week before experimentation. Blood samples from rats were collected under anesthesia (2% isoflurane in air) by puncturing the retro-orbital vein plexus with a glass capillary. In a repeat-dose, 26-day experiment, animals were administered vehicle or BAY 85-3934 at doses of 0.5 mg/kg, 1.25 mg/kg, 2.5 mg/kg, and 5 mg/kg. PCV was determined at baseline and at weekly intervals after centrifugation in a hematocrit capillary tube (Brand) for 10 min at full speed in a Haemofuge centrifuge (Heraeus). The number of reticulocytes in 5 µl blood was counted after staining with thiazol orange (Becton Dickinson) according to the manufacturer’s instructions by FACS analysis on a BD FACSCalibur system (Becton Dickinson). The efficacy of BAY 85-3934 (2.5 mg/kg, once-daily, oral) was also compared with that of rhEPO (25 IU/kg, 50 IU/kg, and 100 IU/kg, twice-weekly, s.c. injection). The time-course of induction of EPO mRNA expression and plasma EPO was determined at baseline and 0.5 h, 1 h, 2 h, 4 h, 6 h, and 8 h after oral administration of a single dose of BAY 85-3934 (5 mg/kg).

[5] = tested on: broad panel of radio-ligand binding assays; assay: Broad panel of radio-ligand binding assays (n = 67); conditions: 10 µM, n = 67 assays, data not shown
Description: The selectivity of BAY 85-3934 was examined via a broad panel of radio-ligand binding assays (n = 67), and by examining the activity of BAY 85-3934 against related enzymes (matrix metalloproteinases and other peptidases, n = 8). At a concentration of 10 µM, no significant (> 50%) activity in any of these assays was detected (data not shown).

[6] = tested on: rats and cynomolgus monkeys; assay: Adverse events in all animal experiments reported; assay type: in vivo; conditions: all of the experiments reported
Description: All procedures conformed to national legislation (dt. Tierschutzgesetz v. 18.05.2006) and EU directives (86/609) for the use of animals for scientific purposes and were approved by the institutional animal care office of Bayer AG and by the competent regional authority (LANUV Recklinghausen). All surgical procedures were performed under deep anesthesia (2% isoflurane) with immediate post-operative analgesia (ketamine/carprofen), and all efforts were made to minimize suffering. Rats were sacrificed by exposure to 10% isoflurane and consecutive cervical dislocation. Standard laboratory diet and tap water were available ad libitum. Rats were provided with wood sticks for chewing and gnawing, and monkeys were provided with appropriate toys such as balls and climbing bars. Animals were housed in temperature- and humidity-controlled cages with a 12 h light/dark cycle. In each experiment, the number of animals used was minimized. Animals were either randomly assigned to experimental groups or, if appropriate, were assigned based on hematocrit levels.

## O=c1c(-n2ccnn2)c[nH]n1-c1cc(N2CCOCC2)ncn1 [BAY 85-3934, 2-[6-(morpholin-4-yl)pyrimidin-4-yl]-4-(1H-1,2,3-triazol-1-yl)-1,2-dihydro-3H-pyrazol-3-one]
[1]; 14 days, rhEPO 100 IU/kg twice weekly s.c., BAY 85-3934 1.5 mg/kg once daily
  mean gains of hemoglobin and red blood cells, both treatments compared: almost completely congruent over time
[1]; chronic once-daily administration
  induced EPO peak concentrations, factor within the normal physiological range: approximately 2 fold
[2]; BAY 85-3934 2.5 mg/kg once daily
  equivalence of dose for gains in hematocrit and hemoglobin: equivalent to a twice-weekly dose of rhEPO (100 IU/kg)
[2]; BAY 85-3934 2.5 mg/kg once daily oral, rhEPO 25, 50, 100 IU/kg twice weekly s.c., p<0.001 at day 30
  hematocrit compared with the control group: significant increase
[3]
  blood pressure in normotensive rats: did not affect blood pressure
[4]; 1.25 mg/kg once daily, by day 26
  gain in mean PCV: approximately 3%
[4]; 5 mg/kg once daily, 26 days
  mean PCV gain from baseline: 17%
[4]; 0.5–5 mg/kg, 26 days
  tolerability: well tolerated
[4]; once daily oral, 26 days
  dose from which mean PCV is significantly elevated versus vehicle: ≥ 1.25 mg/kg
[5]
  activity in radio-ligand binding assays: ≤ 50%
[6]
  adverse events related to treatment: no significant adverse events
